One assay deals with Human alphaherpesvirus 2. The experiment in a line: Effect on herpes simplex virus HSV-2; Ineffective. Type of assay: functional, organism-based.
For a further assay, the system named is Human alphaherpesvirus 1. Description: Effect on herpes simplex virus HSV-1; Ineffective. It counts as functional, organism-based.

Take `C1C2C3CC4C1C1C2NC3C41` (configuration not stated): the Activity result in the assay on Human alphaherpesvirus 2 and in the assay with Human alphaherpesvirus 1 was “Ineffective” in each case.

Values taken from ChEMBL document CHEMBL1123115, “Synthesis and antiviral activity of 11-azapentacyclo[6.2.1.0.0.0]decane” (J Med Chem, 1985).
